Converted amounts (≈) assume the structure as drawn. Peptide text beside a SMILES is read from it.
Tests used:
[1] = test system: Shigella boydii DSM 7532; conditions: Mueller-Hinton II broth + 0.02% BSA, 18-20 hours at 37° C.
Description: […] colony forming units (CFU)/mL. Aliquots (50 μl) of inoculate were added to 50 μl of MH broth+0.02% BSA containing the peptide in serial two-fold dilutions. The following microorganisms were used to determine antibiotic selectivity of the peptides: Bacillus subtilis DSM 10 and Shigella boydii DSM 7532.

[2] = in vitro; assay type: cell-based
Description: The cytotoxicity of the peptides to HELA cells (Acc57) and COS-7 cells (CRL-1651) was determined using the MTT reduction assay (T. Mossman, J. Immunol. Meth. 1983, 65, 55-63; M. V. Berridge, A. S. Tan, Arch. Biochem. Biophys. 1993, 303, 474-482). Briefly, the method was as follows: 4000 HELA cells/well and 3400 COS-7 cells/well were seeded and grown in 96-well microtiter plates for 24 h at 37° C. at 5% CO2. Thereafter, time zero (Tz) was determined by MTT reduction (see below). The supernatant of the remaining wells was discarded, and fresh medium and compounds in serial dilutions (12.5, 25 and 50 μg/mL, triplicates) were pipetted into the wells. After incubation of the cells for 48 h at 37° C. at 5% CO2 the supernatant was discarded again and 100 μL MTT reagent (0.5 mg/mL in RPMI1640 and DMEM, respectively)/well was added. Following incubation at 37° C. for 2-4 h the media were aspirated and the cells were spiked (100 μL isopropanol/well). The absorbance of the solubilized formazan was measured at 595 nm (OD595peptide). For each concentration averages were calculated from triplicates. The percentage of growth was calculated as follows: (OD595peptide-OD595Tz-OD595Empty well)/(OD595Tz-OD595Empty well)×100%. The GI50 (Growth Inhibition) concentrations were calculated for each peptide by using a trend line function for the concentrations (50, 25, 12.5 and 0 μg/mL), the corresponding percentages and the value 50, (=TREND (C50:C0%50:%0,50).

[3] = test system: human red blood cells (hRBC); assay type: cell-based; conditions: red cells of human, 1 h
Description: The peptides were tested for their hemolytic activity against human red blood cells (hRBC). Fresh hRBC were washed three times with phosphate buffered saline (PBS) and centrifuged for 10 min at 2000×g. Compounds (100 μg/mL) were incubated with 20% hRBC (v/v) for 1 h at 37° C. and shaking at 300 rpm. The final erythrocyte concentration was approximately 0.9×10^9 cells/mL. A value of 0% and 100% cell lyses, respectively, was determined by incubation of hRBC in the presence of PBS containing 0.001% acetic acid and 2.5% Triton X-100 in H2O, respectively. The samples were centrifuged, the supernatants were 8-fold diluted in PBS buffer and the optical densities (OD) were measured at 540 nm. The 100% lyses value (OD540H2O) gave an OD50 of approximately 0.5-1.0.
Percent hemolysis was calculated as follows: (OD540peptide/OD540H2O)×100%.

Compound	Shigella boydii DSM 7532 MIC [1] [µg/mL]	GI50 at 48 h ([2]; African green monkey) [µg/mL]	GI50 at 48 h ([2]; human) [µg/mL]	Hemolysis at 100 μg/mL [3] [%]
CC[C@H](C)[C@@H]1NC(=O)[C@H](CCCNC(=N)N)NC(=O)[C@H](Cc2c[nH]c3ccccc23)NC(=O)[C@@H]2CCCN2C(=O)[C@H]2CCCN2C(=O)[C@H](C)NC(=O)[C@H](CCC(N)=O)NC(=O)[C@H](CC(C)C)NC(=O)[C@H](CCCNC(=N)N)NC(=O)[C@H](CCC(N)=O)NC(=O)[C@H]([C@@H](C)O)NC(=O)[C@@H](CCCNC(=N)N)NC(=O)[C@H]([C@@H](C)CC)NC(=O)[C@H](CCCNC(=N)N)NC1=O [Example 12] (HELM PEPTIDE1{W.R.I.R.I.[dR].T.Q.R.L.Q.A.[dP].P}$PEPTIDE1,PEPTIDE1,1:R1-14:R2$$$V2.0)	>16	> 50	> 50	0.7
CC[C@H](C)[C@@H]1NC(=O)[C@H](CCCNC(=N)N)NC(=O)[C@H](Cc2c[nH]c3ccccc23)NC(=O)[C@@H]2CCCN2C(=O)[C@H]2CCCN2C(=O)[C@H](CCCNC(=N)N)NC(=O)[C@H](CCCNC(=N)N)NC(=O)[C@H](CC(N)=O)NC(=O)[C@H](CCCNC(=N)N)NC(=O)[C@H](Cc2c[nH]cn2)NC(=O)[C@H](CC(N)=O)NC(=O)[C@@H](CCCNC(=N)N)NC(=O)[C@H]([C@@H](C)CC)NC(=O)[C@H](CCCNC(=N)N)NC1=O [Example 18] (HELM PEPTIDE1{W.R.I.R.I.[dR].N.H.R.N.R.R.[dP].P}$PEPTIDE1,PEPTIDE1,1:R1-14:R2$$$V2.0)	4	> 50	39 (≈ 20.4 µM)	0.3
CC[C@H](C)[C@@H]1NC(=O)[C@H](CCN)NC(=O)[C@H](Cc2c[nH]c3ccccc23)NC(=O)[C@@H]2CCCN2C(=O)[C@H]2CCCN2C(=O)[C@H](C)NC(=O)[C@H](CCC(N)=O)NC(=O)[C@H](CC(C)C)NC(=O)[C@H](CCCNC(=N)N)NC(=O)[C@H](CCC(N)=O)NC(=O)[C@H](CC(N)=O)NC(=O)[C@@H](CCCNC(=N)N)NC(=O)[C@H]([C@@H](C)CC)NC(=O)[C@H](CCCNC(=N)N)NC1=O [Example 5] (HELM PEPTIDE1{W.[Dab].I.R.I.[dR].N.Q.R.L.Q.A.[dP].P}$PEPTIDE1,PEPTIDE1,1:R1-14:R2$$$V2.0)	16	> 50	> 50	0.0
CC[C@H](C)[C@@H]1NC(=O)[C@H](CCCNC(=N)N)NC(=O)[C@H](Cc2c[nH]c3ccccc23)NC(=O)[C@@H]2CCCN2C(=O)[C@H]2CCCN2C(=O)[C@H](C)NC(=O)[C@H](CCC(N)=O)NC(=O)[C@H](CC(C)C)NC(=O)[C@H](CCCNC(=N)N)NC(=O)[C@H](CCC(N)=O)NC(=O)[C@H](CCC(N)=O)NC(=O)[C@@H](CCCNC(=N)N)NC(=O)[C@H]([C@@H](C)CC)NC(=O)[C@H](CCCNC(=N)N)NC1=O [Example 11] (HELM PEPTIDE1{W.R.I.R.I.[dR].Q.Q.R.L.Q.A.[dP].P}$PEPTIDE1,PEPTIDE1,1:R1-14:R2$$$V2.0)	>16	> 50	> 50	0.0
CC[C@H](C)[C@@H]1NC(=O)[C@H](CCCNC(=N)N)NC(=O)[C@H](Cc2c[nH]c3ccccc23)NC(=O)[C@@H]2CCCN2C(=O)[C@H]2CCCN2C(=O)[C@H](C)NC(=O)[C@H](CCC(N)=O)NC(=O)[C@H](CC(C)C)NC(=O)[C@H](CCCNC(=N)N)NC(=O)[C@H](CCC(N)=O)NC(=O)[C@H](Cc2ccc(O)cc2)NC(=O)[C@@H](CCCNC(=N)N)NC(=O)[C@H]([C@@H](C)CC)NC(=O)[C@H](CCCNC(=N)N)NC1=O [Example 14] (HELM PEPTIDE1{W.R.I.R.I.[dR].Y.Q.R.L.Q.A.[dP].P}$PEPTIDE1,PEPTIDE1,1:R1-14:R2$$$V2.0)	16	> 50	> 50	0.0
CC[C@H](C)[C@@H]1NC(=O)[C@H](CCCNC(=N)N)NC(=O)[C@H]([C@@H](C)CC)NC(=O)[C@H](CCCNC(=N)N)NC(=O)[C@H](Cc2c[nH]c3ccccc23)NC(=O)[C@@H]2CCCN2C(=O)[C@H]2CCCN2C(=O)[C@H](C)NC(=O)[C@H](CCC(N)=O)NC(=O)[C@H](CC(C)C)NC(=O)[C@H](CCCNC(=N)N)NC(=O)[C@H](CCC(N)=O)NC(=O)[C@H](CC(N)=O)NC(=O)[C@H](CCCN)NC1=O [Example 9] (HELM PEPTIDE1{W.R.I.R.I.[Orn].N.Q.R.L.Q.A.[dP].P}$PEPTIDE1,PEPTIDE1,1:R1-14:R2$$$V2.0)	>16	> 50	> 50	0.0
CC[C@H](C)[C@@H]1NC(=O)[C@H](CCCN)NC(=O)[C@H](Cc2c[nH]c3ccccc23)NC(=O)[C@@H]2CCCN2C(=O)[C@H]2CCCN2C(=O)[C@H](C)NC(=O)[C@H](CCC(N)=O)NC(=O)[C@H](CC(C)C)NC(=O)[C@H](CCCNC(=N)N)NC(=O)[C@H](CCC(N)=O)NC(=O)[C@H](CC(N)=O)NC(=O)[C@@H](CCCNC(=N)N)NC(=O)[C@H]([C@@H](C)CC)NC(=O)[C@H](CCCNC(=N)N)NC1=O [Example 6] (HELM PEPTIDE1{W.[Orn].I.R.I.[dR].N.Q.R.L.Q.A.[dP].P}$PEPTIDE1,PEPTIDE1,1:R1-14:R2$$$V2.0)	>16	> 50	> 50	0.0

From US8895499B2, “β-hairpin peptidomimetics” (Polyphor AG, priority 2010, dated 2014)
